Test results taken from US7968529B2, “Use of sphingolipids for reducing high plasma cholesterol and high triacylglycerol levels” (Nederlandse Organisatie Voor …, priority 2003, dated 2011).

What was measured:
Type in all cases: in vivo
[1] = system: APOE*3Leiden transgenic mice; assay: Plasma cholesterol in APOE*3Leiden transgenic mice fed a Western-type diet with sphingolipid
From the text: (§1) In this experiment mice were used in which the human gene for the so-called Leiden mutation of apolipoprotein E3 (APOE*3Leiden transgenic mice) had been incorporated by transgenesis. Because of this transgenic change, these so-called APOE*3Leiden mice have a humanized lipoprotein profile, and are extremely suitable for studying the effect of compounds on lipoprotein metabolism (Van Vlijmen et. al. 1996. J Clin Invest. 97:1184-1192; Van Vlijmen et. al. 1998. Arzneimittelforschung 1998; 48:396-402.).
(§2) The study design was as follows: female mice were fed for 5 weeks “Western-type” diet (Nishina et al. 1990. J Lipid Res. 31:859-869) containing 0.25% (w/w) cholesterol. Specifically, the diet contained 15% (all w/w) cocoabutter, 0.25% cholesterol, 1% corn oil, 40.5% sucrose, 20% acid casein, 10% corn starch and 5.95% cellulose, as major ingredients. This diet increased their plasma cholesterol level to about 15 mmol/L. Subsequently, the mice were randomized, on the basis of their plasma cholesterol level, into groups of six mice each. These groups were given the same diet, but containing in addition: • Group 1 no addition • Group 2 0.1% (w/w) phytosphingosine • Group 3 0.1% (w/w) sphingosine • Group 4 0.1% (w/w) sphinganine • Group 5 0.1% (w/w) cerebroside • Group 6 0.1% (w/w) ceramide IV • Group 7 0.1% (w/w) sphingomyelin
(§3) The phytosphingosine, ceramide IV and cerebroside (=glucosyl ceramide) were obtained from Cosmoferm BV (Delft, The Netherlands). Sphingomyelin from egg was obtained from Larodan Fine Chemicals AB (Stockholm, Sweden) and sphingosine and sphinganine were obtained from Avanti Polar Lipids Inc, (Alabaster, Ala., USA). During the experiment, body weight and food intake were monitored. At three weeks after the dietary change, blood was taken to determine plasma cholesterol and triglyceride levels. Also, the plasma lipoprotein pattern was determined group wise in pooled samples by fplc. Then, the concentration of the additives was changed to 0.2%, and feeding continued for another 3 weeks. At three weeks after this dietary change, blood was again taken to determine plasma cholesterol and triglyceride levels, and the plasma lipoprotein pattern was determined group wise in pooled samples by fplc. The dietary additives were then changed to 0.4% (w/w), and the same cycle of feeding and blood sampling was executed.
(§4) In a separate experiment, groups of six APOE*3Leiden mice were fed the above-described Western-type diet, containing 1.0% (w/w) of phytosphingosine. At the end of the treatment period, plasma cholesterol was reduced with 58% (p=0.007) and plasma triglyceride was reduced with 64% (p=0.01) with respect to the control group.

[2] = system: APOE*3Leiden transgenic mice; assay: Plasma triglycerides in APOE*3Leiden transgenic mice fed a Western-type diet with sphingolipid
From the text: as §1, §2, §3, §4

[3] = system: APOE*3Leiden transgenic mice; assay: Plasma lipoprotein distribution pattern by fplc in pooled samples; details: separate experiment, 1.0% (w/w) in diet
From the text: as §3, with “executed. […] In a separate experiment, groups of six APOE*3Leiden mice were fed the above-described Western-type diet, containing 1.0% (w/w) of phytosphingosine. At the end of the treatment period, plasma cholesterol was reduced with 58% (p=0.007) and plasma triglyceride was reduced with 64% (p=0.01) with respect to the control group.” for “executed.”

[4] = t = 0, baseline after 5 weeks Western-type diet, before addition of sphingolipid, female mice, group mean
[5] = t = 3 (weeks), 0.1% (w/w) in diet
[6] = t = 6 (weeks), 0.2% in diet for the last 3 weeks
[7] = t = 9 (weeks), 0.4% (w/w) in diet for the last 3 weeks

Row | Molecule | Plasma cholesterol levels [1, 4] [mmol/L] | Plasma cholesterol levels [1, 5] [mmol/L] | Plasma cholesterol reduction relative to control ([1]; t = 3 (weeks), 0.1% in diet) [%] | Plasma cholesterol reduction relative to control ([1]; t = 6 (weeks), 0.2% in diet) [%] | Plasma cholesterol levels [1, 6] [mmol/L] | Plasma cholesterol levels [1, 7] [mmol/L] | Plasma cholesterol reduction relative to control ([1]; t = 9 (weeks), 0.4% in diet) [%] | Plasma triglyceride levels [2, 4] [mmol/L] | Plasma triglyceride levels [2, 5] [mmol/L] | Plasma triglyceride reduction relative to control ([2]; t = 3 (weeks), 0.1% in diet) [%] | Plasma triglyceride reduction relative to control ([2]; t = 6 (weeks), 0.2% in diet) [%] | Plasma triglyceride levels [2, 6] [mmol/L] | Plasma triglyceride levels [2, 7] [mmol/L] | Plasma triglyceride reduction relative to control ([2]; t = 9 (weeks), 0.4% in diet) [%] | plasma cholesterol reduced with respect to the control group ([1]; separate experiment, 1.0% (w/w) in Western-type diet, end of treatment period, p=0.007) [%] | plasma triglyceride reduced with respect to the control group ([2]; separate experiment, 1.0% (w/w) in Western-type diet, end of treatment period, p=0.01) [%] | lipoprotein fractions accounting for the decrease of cholesterol and triglycerides (fplc) [3]
1 | CCCCCCCCCCCCCCC[C@@H](O)[C@@H](N)CO [SPHINGANINE, sphinganine] | 15.9 | 14.9 | 0.3 | 36.2 | 10.0 | 11.5 | 31.2 | 2.3 | 1.7 | 19.2 | 52.9 | 1.0 | 1.2 | 44.9 |  |  | 
2 | sphingomyelin | 15.1 | 14.7 | 1.9 | 36.8 | 9.9 | 8.7 | 48.2 | 2.5 | 1.7 | 19.9 | 42.7 | 1.2 | 0.9 | 59.5 |  |  | 
3 | ceramide IV | 15.6 | 14.8 | 1.5 | 19.4 | 12.6 | 11.7 | 29.9 | 2.3 | 2.0 | 8.5 | 49.1 | 1.1 | 1.4 | 38.4 |  |  | 
4 | CCCCCCCCCCCCC/C=C/[C@@H](O)[C@@H](N)CO [SPHINGOSINE, sphingosine] | 14.6 | 15.3 | −2.1 | 29.7 | 11.0 | 9.5 | 43.3 | 2.3 | 2.2 | −0.6 | 32.5 | 1.4 | 1.0 | 54.3 |  |  | 
5 | CCCCCCCCCCCCCC[C@@H](O)[C@@H](O)[C@@H](N)CO [PHYTOSPHINGOSINE, phytosphingosine] | 14.4 | 13.2 | 11.6 | 19.7 | 12.6 | 10.9 | 34.8 | 2.1 | 1.7 | 22.9 | 39.8 | 1.2 | 1.5 | 34.8 | 58 | 64 | fully due to a decrease in VLDL and IDL/LDL fractions
6 | glucosyl ceramide [CEREBROSIDE] | 14.8 | 14.2 | 5.2 | 25.6 | 11.7 | 12.8 | 23.4 | 2.2 | 2.2 | −1.2 | 42.0 | 1.2 | 1.8 | 21.9 |  |  | 
